Assay results from US20150087627A1, “COMBINATION OF KINASE INHIBITORS AND USES THEREOF” (Intellikine LLC, priority 2011, published 2015).
Structures can show the parent of a compound that is named as a salt. Where two headings read alike, the source gives them in different places. *1 amine or outer side, *2 acyl side, *3 side chain or, on linkers, in order; H or OH if unused. Where a SMILES comes first, the peptide text is derived from it. Bridges are numbered along the chain shown (N, C = ends). Roman numbers before positions name the chains, in order. [ ]: non-standard residue; d: D form. Actinocin(9to1) = Cc1c2oc3c(C)ccc(C(=O)[*:1])c3nc-2c(C(=O)[*:2])c(N)c1=O; NMeV = CN[C@H](C(=O)O)C(C)C; Sar = CNCC(=O)O

Columns and labels:
[1] = target: T1, PI3K β (p110β/p85α) (Homo sapiens, UniProt P42338); test: PI 3-Kinase (human) HTRF assay, PI3K β; format: biochemical
T1 construct: purchased Upstate / Millipore Corporation

[2] = target: T2, mTOR (Homo sapiens, UniProt P42345); test: mTOR kinase inhibition assay (radiometric or LanthaScreen TR-FRET); format: biochemical; details: read-out: mTORC IC50
T2 construct: purchased Invitrogen
T2 sequence (P42345 1360-2549 limits assumed): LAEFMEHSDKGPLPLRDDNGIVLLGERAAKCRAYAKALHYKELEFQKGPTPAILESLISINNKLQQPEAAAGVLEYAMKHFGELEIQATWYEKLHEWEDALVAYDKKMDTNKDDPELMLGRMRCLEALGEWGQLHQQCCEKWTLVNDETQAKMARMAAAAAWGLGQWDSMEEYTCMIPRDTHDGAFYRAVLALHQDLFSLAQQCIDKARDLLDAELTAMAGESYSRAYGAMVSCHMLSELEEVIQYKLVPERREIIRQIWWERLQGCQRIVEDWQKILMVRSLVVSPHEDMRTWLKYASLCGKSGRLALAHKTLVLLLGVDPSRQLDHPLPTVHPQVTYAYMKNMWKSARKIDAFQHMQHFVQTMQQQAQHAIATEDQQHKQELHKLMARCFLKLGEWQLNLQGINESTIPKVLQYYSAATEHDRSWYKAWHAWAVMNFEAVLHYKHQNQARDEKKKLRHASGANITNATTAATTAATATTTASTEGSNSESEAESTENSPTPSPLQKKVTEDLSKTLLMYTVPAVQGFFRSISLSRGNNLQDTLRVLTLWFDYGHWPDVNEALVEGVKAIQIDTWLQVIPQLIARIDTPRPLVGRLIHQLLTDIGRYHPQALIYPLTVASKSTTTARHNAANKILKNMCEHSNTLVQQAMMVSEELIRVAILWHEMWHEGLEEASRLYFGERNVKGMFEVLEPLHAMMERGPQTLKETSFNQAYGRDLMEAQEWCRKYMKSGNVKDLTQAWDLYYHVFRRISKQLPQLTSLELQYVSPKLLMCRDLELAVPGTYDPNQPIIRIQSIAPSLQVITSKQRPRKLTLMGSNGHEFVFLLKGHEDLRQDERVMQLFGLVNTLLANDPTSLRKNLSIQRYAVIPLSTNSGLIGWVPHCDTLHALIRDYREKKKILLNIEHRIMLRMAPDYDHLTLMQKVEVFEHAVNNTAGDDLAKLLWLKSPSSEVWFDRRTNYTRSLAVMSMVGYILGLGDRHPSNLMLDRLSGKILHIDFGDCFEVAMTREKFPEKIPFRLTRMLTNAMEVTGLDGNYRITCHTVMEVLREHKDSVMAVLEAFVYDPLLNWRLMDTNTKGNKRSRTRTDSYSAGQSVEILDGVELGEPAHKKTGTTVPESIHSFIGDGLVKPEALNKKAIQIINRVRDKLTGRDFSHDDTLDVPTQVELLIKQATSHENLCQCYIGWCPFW

[3] = target: T3, PI3K α (p110α/p85α) (Homo sapiens, UniProt P42336); test: PI 3-Kinase (human) HTRF assay, PI3K α; format: biochemical
T3 construct: purchased Upstate / Millipore Corporation

[4] = test system: PC3; test: PC3 proliferation; format: cell-based; details: Homo sapiens, PC-3
[5] = target: T4, PI3K δ (Homo sapiens, UniProt O00329); test: PI 3-Kinase (human) HTRF assay, PI3K δ; format: biochemical; details: read-out: PI3K δ IC50
T4 construct: purchased Upstate / Millipore Corporation
T4 sequence (O00329 whole entry): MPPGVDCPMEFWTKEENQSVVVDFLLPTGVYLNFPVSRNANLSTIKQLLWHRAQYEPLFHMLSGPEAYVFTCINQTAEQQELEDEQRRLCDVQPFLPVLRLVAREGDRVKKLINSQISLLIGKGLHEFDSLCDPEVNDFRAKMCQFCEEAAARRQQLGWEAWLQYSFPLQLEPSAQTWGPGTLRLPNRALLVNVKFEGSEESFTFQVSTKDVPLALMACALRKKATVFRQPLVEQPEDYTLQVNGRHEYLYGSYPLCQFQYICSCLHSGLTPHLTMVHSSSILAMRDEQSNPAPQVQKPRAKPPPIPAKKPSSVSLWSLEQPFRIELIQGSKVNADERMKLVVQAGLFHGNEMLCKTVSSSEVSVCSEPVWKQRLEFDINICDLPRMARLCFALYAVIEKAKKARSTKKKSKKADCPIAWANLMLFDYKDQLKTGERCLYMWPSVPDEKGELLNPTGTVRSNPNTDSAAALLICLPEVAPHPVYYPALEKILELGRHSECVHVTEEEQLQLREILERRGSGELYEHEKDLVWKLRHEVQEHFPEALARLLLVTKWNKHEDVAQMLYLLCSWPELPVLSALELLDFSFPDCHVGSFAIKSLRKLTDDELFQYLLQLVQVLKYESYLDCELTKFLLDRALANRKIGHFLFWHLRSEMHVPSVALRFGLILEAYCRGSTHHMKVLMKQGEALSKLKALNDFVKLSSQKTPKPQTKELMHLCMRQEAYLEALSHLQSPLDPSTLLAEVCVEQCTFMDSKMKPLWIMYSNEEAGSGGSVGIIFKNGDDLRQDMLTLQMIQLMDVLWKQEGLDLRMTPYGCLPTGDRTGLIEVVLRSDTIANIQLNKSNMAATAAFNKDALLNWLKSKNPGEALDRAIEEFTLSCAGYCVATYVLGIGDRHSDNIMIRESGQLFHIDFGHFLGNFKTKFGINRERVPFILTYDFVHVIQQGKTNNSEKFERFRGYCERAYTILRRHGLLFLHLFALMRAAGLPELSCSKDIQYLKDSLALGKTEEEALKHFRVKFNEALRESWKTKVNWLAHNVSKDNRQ
T4 sequence (P27986 whole entry partner): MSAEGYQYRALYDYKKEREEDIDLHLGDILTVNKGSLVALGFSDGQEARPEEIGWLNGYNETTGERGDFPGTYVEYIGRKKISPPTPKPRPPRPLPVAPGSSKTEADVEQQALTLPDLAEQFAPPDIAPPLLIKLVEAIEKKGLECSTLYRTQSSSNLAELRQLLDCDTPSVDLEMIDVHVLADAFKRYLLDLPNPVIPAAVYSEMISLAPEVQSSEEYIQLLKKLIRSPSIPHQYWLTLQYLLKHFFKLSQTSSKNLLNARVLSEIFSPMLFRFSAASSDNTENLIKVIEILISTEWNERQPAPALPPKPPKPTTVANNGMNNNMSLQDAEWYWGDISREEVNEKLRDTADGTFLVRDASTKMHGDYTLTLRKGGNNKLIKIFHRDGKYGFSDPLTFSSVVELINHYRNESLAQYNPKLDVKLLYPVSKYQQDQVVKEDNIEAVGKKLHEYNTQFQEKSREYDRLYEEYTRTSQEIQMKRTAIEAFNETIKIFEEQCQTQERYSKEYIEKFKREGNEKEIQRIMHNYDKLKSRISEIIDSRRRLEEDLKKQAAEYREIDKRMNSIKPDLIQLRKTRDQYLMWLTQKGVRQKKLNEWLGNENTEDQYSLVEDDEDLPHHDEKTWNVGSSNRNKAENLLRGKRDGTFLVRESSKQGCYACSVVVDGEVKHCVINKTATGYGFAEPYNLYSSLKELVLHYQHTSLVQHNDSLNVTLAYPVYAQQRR

[6] = test system: T47D; test: T47D proliferation; format: cell-based; details: Homo sapiens; T47D cell line
[7] = target: T5, PI3K γ (p110γ) (Homo sapiens, UniProt P48736); test: PI 3-Kinase (human) HTRF assay, PI3K γ; format: biochemical
T5 construct: purchased Upstate / Millipore Corporation
T5 sequence (P48736 whole entry): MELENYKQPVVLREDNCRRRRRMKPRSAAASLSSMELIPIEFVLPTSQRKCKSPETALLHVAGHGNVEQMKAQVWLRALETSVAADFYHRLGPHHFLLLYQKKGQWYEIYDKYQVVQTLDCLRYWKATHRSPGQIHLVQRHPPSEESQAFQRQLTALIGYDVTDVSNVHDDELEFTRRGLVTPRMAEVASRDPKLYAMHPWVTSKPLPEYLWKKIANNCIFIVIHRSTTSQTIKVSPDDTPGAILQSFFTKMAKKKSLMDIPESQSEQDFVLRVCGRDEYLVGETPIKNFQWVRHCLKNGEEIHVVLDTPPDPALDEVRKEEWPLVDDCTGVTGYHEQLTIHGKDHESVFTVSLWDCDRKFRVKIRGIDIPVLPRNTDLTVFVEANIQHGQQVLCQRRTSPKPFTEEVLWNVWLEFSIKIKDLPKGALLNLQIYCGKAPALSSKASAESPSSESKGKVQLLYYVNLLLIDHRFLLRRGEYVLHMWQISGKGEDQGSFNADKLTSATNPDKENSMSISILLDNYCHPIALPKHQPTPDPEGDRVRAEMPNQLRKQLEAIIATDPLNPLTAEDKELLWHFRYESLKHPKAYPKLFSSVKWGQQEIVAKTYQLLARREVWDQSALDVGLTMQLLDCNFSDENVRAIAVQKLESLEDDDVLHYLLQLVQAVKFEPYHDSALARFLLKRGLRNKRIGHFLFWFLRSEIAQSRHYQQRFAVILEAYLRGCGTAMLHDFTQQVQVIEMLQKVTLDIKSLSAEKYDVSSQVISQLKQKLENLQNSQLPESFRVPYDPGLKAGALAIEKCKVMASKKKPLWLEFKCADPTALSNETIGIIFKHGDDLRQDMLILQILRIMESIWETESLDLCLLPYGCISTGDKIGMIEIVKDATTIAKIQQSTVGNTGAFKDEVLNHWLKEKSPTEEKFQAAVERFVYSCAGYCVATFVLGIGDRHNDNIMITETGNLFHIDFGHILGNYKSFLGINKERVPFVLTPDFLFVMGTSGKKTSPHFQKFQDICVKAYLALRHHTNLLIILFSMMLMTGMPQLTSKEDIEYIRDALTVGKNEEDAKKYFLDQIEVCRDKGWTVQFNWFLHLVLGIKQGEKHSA

[8] = clinical use of the marketed drug; cited from earlier work
[9] = Table 2 (mTor inhibitor compounds), PC3, read-out: PC3 proliferation

Row | SMILES | IC50 ([1]; read-out: PI3K β IC50) [nM] | IC50 [2] [µM] | IC50 ([3]; read-out: PI3K α IC50) [µM] | IC50 [5] [µM] | IC50 [6] [µM] | IC50 ([7]; read-out: PI3K γ IC50) [nM] | dose limiting or most common side effect [8] | other results
1 | Nc1nc2cc(-c3ccc4ncn(-c5ccccc5)c4c3)ccc2o1 [Compound 11] | < 10000 | > 10 | < 0.1 |  |  |  |  | IC50 ([4]; PC3 cell line (compounds before 438), read-out: PC3 proliferation (nM)*): > 10000 nM
2 | Nc1noc2cc(-c3ccc4nccc(-c5ccncc5)c4c3)ccc12 [Compound 16] | < 10000 |  | < 0.1 | < 10 | < 1 |  |  | 
3 | CC(C)n1nc(-c2cc3ccc(C#N)cc3[nH]2)c2c(N)ncnc21 [Compound 24] |  |  |  |  |  |  |  | IC50 [4, 9]: > 500 nM
4 | CC(C)n1nc(-c2cc3ccc(C(N)=O)cc3[nH]2)c2c(N)ncnc21 [Compound 25] |  |  |  |  |  |  |  | IC50 [4, 9]: > 500 nM
5 | CN1CCC(Nc2ncnc3ccc(-c4ccc5oc(N)nc5c4)cc23)CC1 [Compound 35] |  | < 10 | < 0.1 | < 0.1 | < 10 | < 100 |  | 
6 | CN1CCC(n2cnc3ccc(-c4ccc5oc(N)nc5c4)cc3c2=O)CC1 [Compound 36] |  | < 10 | < 0.1 | < 10 | < 10 | > 10000 |  | 
7 | Cn1cc(-c2cnc3ccc(-c4ccc5oc(N)nc5c4)cn23)cn1 [Compound 41] |  | < 10 | < 0.1 | < 1 | < 10 |  |  | 
8 | CN1CCN(c2ccc(-c3cnc4ccc(-c5ccc6oc(N)nc6c5)cn34)cn2)CC1 [Compound 42] |  | > 10 | < 0.1 | < 1 | < 10 | < 1000 |  | 
9 | Nc1nc2cc(-c3ccc4ncc(OC5CCOCC5)nc4c3)ccc2o1 [Compound 49] |  | < 10 | < 0.1 | < 10 | < 10 | < 1000 |  | 
10 | Nc1nc2cc(-c3ccc4ncc(-c5ccc6nc(N)oc6c5)n4c3)ccc2o1 [Compound 50] |  | > 10 | < 0.1 | < 10 | < 10 | < 100 |  | 
11 | Nc1nc2cc(-c3ccc4ncc(C(=O)N5CCOCC5)n4c3)ccc2o1 [Compound 54] | < 10000 | < 10 |  | < 10 | < 10 |  |  | 
12 | Cc1nc2ccc(-c3ccc4oc(N)nc4c3)nn2c1-c1ccncc1 [Compound 56] | < 1000 | < 1 | < 0.1 | > 10 | < 10 | < 100 |  | 
13 | Nc1nc2cc(-c3ccc4ncc(N5CCOCC5)nc4c3)ccc2o1 [Compound 64] | < 1000 | < 10 | < 0.1 | > 10 | < 10 | < 100 |  | 
14 | CN1CCN(c2cnc3ccc(-c4ccc5oc(N)nc5c4)cc3n2)CC1 [Compound 65] | < 100 | > 10 | < 0.1 | < 10 | < 10 | < 1000 |  | 
15 | CN1CC(C(=O)N2CCC(Nc3ncnc4ccc(-c5ccc6oc(N)nc6c5)cc34)CC2)C1 [Compound 138] | < 1000 |  | < 0.1 | < 0.1 | > 10 | < 1000 |  | 
16 | CC1CN(c2cnc3ccc(-c4ccc5oc(N)nc5c4)cc3n2)CCN1 (stereo not drawn) [Compound 149] | < 100 |  | < 0.1 | < 10 | > 10 |  |  | 
17 | CN1CCC(N(C)c2cnc3ccc(-c4ccc5oc(N)nc5c4)cc3n2)CC1 [Compound 151] |  |  |  | < 1 | < 10 |  |  | IC50 ([1]; PI3K β IC50 (nM)): < 10000 nM; IC50 ([7]; PI3K γ IC50 (nM)): < 10000 nM; IC50 [3]: < 0.1 µM
18 | Nc1nc2cc(-c3ccc4ncc(N5CCCCC5)nc4c3)ccc2o1 [Compound 175] | > 10000 |  | < 0.1 | > 10 | > 10 | < 10000 |  | 

Row | SMILES | IC50 ([1]; read-out: PI3K β IC50) [nM] | IC50 [2] [µM] | IC50 ([3]; read-out: PI3K α IC50) [µM] | IC50 [5] [µM] | IC50 [6] [µM] | IC50 ([7]; read-out: PI3K γ IC50) [nM] | dose limiting or most common side effect [8] | other results
19 | Cc1cn(-c2cnc3ccc(-c4ccc5oc(N)nc5c4)cc3n2)cn1 [Compound 177] | > 10000 |  | < 0.1 | > 10 | > 10 | < 1000 |  | 
20 | Nc1nc2cc(-c3ccc4ncc(C(=O)Nc5cccnc5)n4c3)ccc2o1 [Compound 190] | > 10000 |  | < 0.1 | < 1 | > 10 | < 100 |  | 
21 | O.O=P1(N(CCCl)CCCl)NCCCO1 (stereo not drawn) [cyclophosphamide, 2-[bis(2-chloroethyl)amino]tetrahydro-2H-1,3,2-oxazaphosphorine 2-oxide monohydrate] |  |  |  |  |  |  | Alopecia, nausea, vomiting and leukopenia | 
22 | CN(C)N=Nc1[nH]cnc1C(N)=O [dacarbazine, 5-(3,3-dimethyl-1-triazeno)-imidazole-4-carboxamide] |  |  |  |  |  |  | Nausea, vomiting, and anorexia | 
23 | Cc1c2oc3c(C)ccc(C(=O)N[C@@H]4C(=O)N[C@H](C(C)C)C(=O)N5CCC[C@H]5C(=O)N(C)CC(=O)N(C)[C@@H](C(C)C)C(=O)O[C@@H]4C)c3nc-2c(C(=O)N[C@@H]2C(=O)N[C@H](C(C)C)C(=O)N3CCC[C@H]3C(=O)N(C)CC(=O)N(C)[C@@H](C(C)C)C(=O)O[C@@H]2C)c(N)c1=O [dactinomycin] (I: T[dV]P[Sar][NMeV] / II: T[dV]P[Sar][NMeV]; ester I:1-I:C, II:1-II:C; linker I:N-II:N via Actinocin(9to1)) |  |  |  |  |  |  | Nausea, vomiting, and anorexia | 
24 | COc1cccc2c1C(=O)c1c(O)c3c(c(O)c1C2=O)C[C@@](O)(C(C)=O)C[C@@H]3O[C@H]1C[C@H](N)[C@H](O)[C@H](C)O1 [daunorubicin, (8S-cis-)-8-acetyl-10-[(3-amino-2,3,6-trideoxy-α-L-lyxo-hexopyranosyl)oxy]-7,8,9,10-tetrahydro-6,8,11-trihydroxy-1-methoxy-5,12 naphthacenedione hydrochloride] |  |  |  |  |  |  | Myelosuppression | 
25 | CC(=O)O[C@@]12CO[C@@H]1C[C@H](O)[C@@]1(C)C(=O)[C@H](O)C3=C(C)[C@@H](OC(=O)[C@H](O)[C@@H](NC(=O)OC(C)(C)C)c4ccccc4)C[C@@](O)([C@@H](OC(=O)c4ccccc4)[C@H]21)C3(C)C [docetaxel, (2R,3S)—N-carboxy-3-phenylisoserine, N-tert-butyl ester, 13-ester with 5β-20-epoxy-1,2α,4,7β,10β,13α-hexahydroxytax-1-1-en-9-one 4-acetate 2-benzoate, trihydrate] |  |  |  |  |  |  | neutropenia | 
26 | COc1cccc2c1C(=O)c1c(O)c3c(c(O)c1C2=O)C[C@@](O)(C(=O)CO)C[C@@H]3O[C@H]1C[C@H](N)[C@H](O)[C@H](C)O1.Cl [doxorubicin, (8S,10S)-10-[(3-amino-2,3,6-trideoxy-α-L-lyxo-hexopyranosyl)oxy]-8-glycoloyl, 7,8,9,10-tetrahydro-6,8,11-trihydroxy-1-methoxy-5,12 naphthacenedione hydrochloride] |  |  |  |  |  |  | Myelosuppression | 
27 | Nc1ccn([C@@H]2O[C@H](CO)[C@@H](O)C2(F)F)c(=O)n1 [gemcitabine, 2′-deoxy-2′,2′-difluorocytidine monohydrochloride (β-isomer)] |  |  |  |  |  |  | Myelosuppression, including leucopenia, thrombocytopenia, and anemia | 
28 | CCc1c2c(nc3ccc(OC(=O)N4CCC(N5CCCCC5)CC4)cc13)-c1cc3c(c(=O)n1C2)COC(=O)[C@]3(O)CC [irinotecan HCl, (4S)-4,11-diethyl-4-hydroxy-9-[(4-piperidinopiperidino)carbonyloxy]-1H-pyrano[3′,4′,6,7]indolizino[1,2-b]quinoline-3,14(4H,12H)-dione hydrochloride] |  |  |  |  |  |  | myelosuppression, including neutropenia, and GI effects, including diarrhea | 
29 | N[C@@H](Cc1ccc(N(CCCl)CCCl)cc1)C(=O)O [melphalan, 4-[bis(2-chloroethyl)amino]-L-phenylalanine] |  |  |  |  |  |  | Bone marrow suppression | 
30 | O.Sc1ncnc2nc[nH]c12 [mercaptopurine, 1,7-dihydro-6H-purine-6-thione monohydrate] |  |  |  |  |  |  | Myelosuppression and gastrointestinal mucositis | 
31 | CN(Cc1cnc2nc(N)nc(N)c2n1)c1ccc(C(=O)N[C@@H](CCC(=O)O)C(=O)O)cc1 [methotrexate] |  |  |  |  |  |  | Myelosuppression (leucopenia, thrombocytopenia, and anemia) and mucositis | 
32 | COc1cc([C@@H]2c3cc4c(cc3[C@@H](O[C@@H]3O[C@@H]5CO[C@@H](c6cccs6)O[C@H]5[C@H](O)[C@H]3O)[C@H]3COC(=O)[C@H]23)OCO4)cc(OC)c1O [teniposide, 4′-demethyl-epipodophyllotoxin 9[4,6-0-(R)-thenylidene-β-D-glucopyranoside]] |  |  |  |  |  |  | Myelosuppression | 
33 | Nc1nc2nc[nH]c2c(=S)[nH]1 [thioguanine, 2-amino-1,7-dihydro-6H-purine-6-thione] |  |  |  |  |  |  | Myelosuppression, including leucopenia, thrombocytopenia, and anemia | 
34 | CC[C@@]1(O)C(=O)OCc2c1cc1n(c2=O)Cc2cc3c(CN(C)C)c(O)ccc3nc2-1 [topotecan HCl, (S)-10-[(dimethylamino)methyl]-4-ethyl-4,9-dihydroxy-1H-pyrano[3′,4′,6,7]-indolizino[1,2-b]quinoline-3,14-(4H,12H)-dione monohydrochloride] |  |  |  |  |  |  | myelosuppression, primarily neutropenia | 
35 | CC[C@]1(O)C[C@H]2CN(CCc3c([nH]c4ccccc34)[C@@](C(=O)OC)(c3cc4c(cc3OC)N(C=O)[C@H]3[C@@](O)(C(=O)OC)[C@H](OC(C)=O)[C@]5(CC)C=CCN6CC[C@]43[C@@H]65)C2)C1 [vincristine, vincaleukoblastine, 22-oxo-, sulfate] |  |  |  |  |  |  | Alopecia and neurologic effects | 
